Laboratory results as given in patent US9938281B2 (Merck Sharp & Dohme Corp., priority 2012, dated 2018).

Experiments:
[1] = molecular target: T1, PI3K-alpha (Homo sapiens, UniProt P42336); assay: HTRF PI3K biochemical assay, alpha isoform; settings: ratio PI3K-alpha IC50 value / PI3K-delta IC50 value
T1 construct: purchased Upstate; Millipore 14-602

[2] = molecular target: T2, PI3K-delta (Homo sapiens, UniProt O00329); assay: HTRF PI3K biochemical assay, delta isoform; settings: form screened (neutral or TFA salt) given, read-out: PI3Kdelta IC50
T2 construct: purchased Upstate; Millipore 14-604
T2 sequence (O00329 whole entry, canonical isoform): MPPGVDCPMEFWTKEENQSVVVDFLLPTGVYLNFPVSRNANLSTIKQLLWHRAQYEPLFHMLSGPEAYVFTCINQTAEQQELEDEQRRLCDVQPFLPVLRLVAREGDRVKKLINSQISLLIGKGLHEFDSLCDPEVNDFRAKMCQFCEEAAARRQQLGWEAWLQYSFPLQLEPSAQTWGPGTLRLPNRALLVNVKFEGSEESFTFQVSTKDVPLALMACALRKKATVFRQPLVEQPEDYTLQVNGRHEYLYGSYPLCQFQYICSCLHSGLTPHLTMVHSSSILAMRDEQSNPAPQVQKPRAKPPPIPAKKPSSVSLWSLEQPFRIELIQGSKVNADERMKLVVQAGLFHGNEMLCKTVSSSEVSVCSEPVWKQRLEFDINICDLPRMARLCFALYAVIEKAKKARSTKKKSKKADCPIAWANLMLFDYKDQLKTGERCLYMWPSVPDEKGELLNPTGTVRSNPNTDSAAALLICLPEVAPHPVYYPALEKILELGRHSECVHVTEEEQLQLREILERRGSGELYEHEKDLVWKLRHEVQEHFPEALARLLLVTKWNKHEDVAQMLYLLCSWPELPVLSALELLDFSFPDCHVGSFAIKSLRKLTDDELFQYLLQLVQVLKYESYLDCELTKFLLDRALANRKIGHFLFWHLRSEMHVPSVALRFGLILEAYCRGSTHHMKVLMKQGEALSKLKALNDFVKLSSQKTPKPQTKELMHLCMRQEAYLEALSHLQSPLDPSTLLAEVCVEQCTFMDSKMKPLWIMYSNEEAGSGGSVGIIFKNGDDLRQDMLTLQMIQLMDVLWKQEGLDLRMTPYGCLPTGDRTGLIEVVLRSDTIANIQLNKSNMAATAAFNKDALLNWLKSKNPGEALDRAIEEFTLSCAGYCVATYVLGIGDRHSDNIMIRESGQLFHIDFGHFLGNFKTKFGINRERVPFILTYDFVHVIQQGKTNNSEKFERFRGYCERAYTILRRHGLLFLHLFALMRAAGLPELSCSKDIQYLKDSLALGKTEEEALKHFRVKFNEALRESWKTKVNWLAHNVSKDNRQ
T2 sequence (P27986 whole entry partner, canonical isoform): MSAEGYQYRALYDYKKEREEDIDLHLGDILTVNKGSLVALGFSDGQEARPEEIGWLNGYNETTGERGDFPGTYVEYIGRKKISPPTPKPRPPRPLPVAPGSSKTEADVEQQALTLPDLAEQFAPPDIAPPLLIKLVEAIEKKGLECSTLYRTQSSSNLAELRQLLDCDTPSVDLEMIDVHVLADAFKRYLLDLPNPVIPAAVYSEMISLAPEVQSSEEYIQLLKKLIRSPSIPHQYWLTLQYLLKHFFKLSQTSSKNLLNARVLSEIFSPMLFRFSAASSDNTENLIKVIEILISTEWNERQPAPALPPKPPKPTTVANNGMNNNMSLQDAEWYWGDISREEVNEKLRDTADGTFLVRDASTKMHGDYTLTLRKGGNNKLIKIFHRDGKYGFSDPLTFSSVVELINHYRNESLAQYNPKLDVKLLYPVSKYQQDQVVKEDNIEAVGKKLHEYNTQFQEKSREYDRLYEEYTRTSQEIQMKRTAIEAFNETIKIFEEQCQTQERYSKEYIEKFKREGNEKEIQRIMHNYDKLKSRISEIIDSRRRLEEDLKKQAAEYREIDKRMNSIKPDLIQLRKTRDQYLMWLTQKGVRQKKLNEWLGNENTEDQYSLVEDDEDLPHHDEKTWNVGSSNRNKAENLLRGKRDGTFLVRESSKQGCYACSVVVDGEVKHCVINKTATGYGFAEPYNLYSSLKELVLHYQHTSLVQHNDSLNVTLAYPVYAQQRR

T1 sequence (P42336 whole entry, canonical isoform): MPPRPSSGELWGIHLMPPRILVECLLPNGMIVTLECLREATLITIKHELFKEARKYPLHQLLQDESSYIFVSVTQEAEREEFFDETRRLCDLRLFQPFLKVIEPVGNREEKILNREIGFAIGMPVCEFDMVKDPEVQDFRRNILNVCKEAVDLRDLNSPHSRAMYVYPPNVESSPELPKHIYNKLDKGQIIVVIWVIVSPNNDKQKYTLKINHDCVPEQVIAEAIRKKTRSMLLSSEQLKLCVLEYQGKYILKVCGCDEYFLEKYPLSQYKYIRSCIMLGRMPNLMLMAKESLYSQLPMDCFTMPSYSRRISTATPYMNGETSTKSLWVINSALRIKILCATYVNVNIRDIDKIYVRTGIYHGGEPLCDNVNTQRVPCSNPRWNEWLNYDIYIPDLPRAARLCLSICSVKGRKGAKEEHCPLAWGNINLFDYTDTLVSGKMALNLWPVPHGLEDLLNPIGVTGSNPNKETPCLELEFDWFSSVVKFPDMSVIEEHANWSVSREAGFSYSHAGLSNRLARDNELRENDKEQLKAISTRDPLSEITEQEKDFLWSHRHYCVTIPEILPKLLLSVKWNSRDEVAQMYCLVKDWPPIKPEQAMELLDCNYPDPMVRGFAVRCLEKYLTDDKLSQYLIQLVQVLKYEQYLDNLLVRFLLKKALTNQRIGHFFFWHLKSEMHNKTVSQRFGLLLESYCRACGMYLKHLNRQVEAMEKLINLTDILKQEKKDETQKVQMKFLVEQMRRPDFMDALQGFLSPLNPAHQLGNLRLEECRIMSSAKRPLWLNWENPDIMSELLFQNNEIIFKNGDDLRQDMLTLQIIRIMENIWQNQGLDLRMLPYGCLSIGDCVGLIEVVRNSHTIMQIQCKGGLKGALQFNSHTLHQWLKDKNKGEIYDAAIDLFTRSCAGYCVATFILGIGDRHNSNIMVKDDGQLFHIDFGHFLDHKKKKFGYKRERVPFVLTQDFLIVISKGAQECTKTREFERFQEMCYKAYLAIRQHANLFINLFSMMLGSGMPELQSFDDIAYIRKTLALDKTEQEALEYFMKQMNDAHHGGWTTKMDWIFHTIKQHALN
T1 sequence (P27986 whole entry partner, canonical isoform): as the sequence (P27986 whole entry partner, canonical isoform) above

| SMILES | Selectivity versus PI3Kalpha [1] | IC50 [2] |
| --- | --- | --- |
| CCn1c(C(F)F)nc2c(N[C@H]3CCN(C(=O)N4CC(OC)C4)C3)ncnc21 [Compound 7-28, 8-(difluoromethyl)-9-ethyl-N-{(3S)-1-[(3-methoxyazetidin-1-yl)carbonyl]pyrrolidin-3-yl}-9H-purin-6-amine] | >10 | 3.2 nM |
| CCn1c(N2CC[C@@H](O)C2)nc2c(N[C@H]3CCN(C(=O)C4CC4)C3)ncnc21 [Compound 8-1, (3R)-1-(6-{[(3S)-1-(cyclopropylcarbonyl)pyrrolidin-3-yl]amino}-9-ethyl-9H-purin-8-yl)pyrrolidin-3-ol] | >10 | 510 nM |
| CCn1c(-n2cnc3ccccc32)nc2c(N[C@H]3CCN(C(=O)C4CC4)C3)ncnc21 [Compound 8-2, 8-(1H-benzimidazol-1-yl)-N-[(3S)-1-(cyclopropylcarbonyl)pyrrolidin-3-yl]-9-ethyl-9H-purin-6-amine] | >10 | < 1 nM |
| CCn1c(-n2cnc(C(F)(F)F)c2)nc2c(N[C@H]3CCN(C(=O)C4CC4)C3)ncnc21 [Compound 8-3, N-[(3S)-1-(cyclopropylcarbonyl)pyrrolidin-3-yl]-9-ethyl-8-[4-(trifluoromethyl)-1H-imidazol-1-yl]-9H-purin-6-amine] | >10 | 11 nM |
| CCn1c(N(C)CC(C)C)nc2c(N[C@H]3CCN(C(=O)C4CC4)C3)ncnc21 [Compound 8-4, cyclopropyl[(3S)-3-({9-ethyl-8-[methyl(2-methylpropyl)amino]-9H-purin-6-yl}amino)pyrrolidin-1-yl]methanone] | >10 | 100 nM |
| CCn1c(Oc2ccccc2)nc2c(N[C@H]3CCN(C(=O)C4CC4)C3)ncnc21 [Compound 8-5, N-[(3S)-1-(cyclopropylcarbonyl)pyrrolidin-3-yl]-9-ethyl-8-phenoxy-9H-purin-6-amine] | >10 | 23 nM |

The next lines start with the values.

| Selectivity versus PI3Kalpha [1] | IC50 [2] | SMILES |
| --- | --- | --- |
| >10 | 8.2 nM | CCn1c(Oc2ccc(OC)c(F)c2)nc2c(N[C@H]3CCN(C(=O)C4CC4)C3)ncnc21 [Compound 8-6, N-[(3S)-1-(cyclopropylcarbonyl)pyrrolidin-3-yl]-9-ethyl-8-(3-fluoro-4-methoxyphenoxy)-9H-purin-6-amine] |
| >10 | 35 nM | CCn1c(OC(C)C)nc2c(N[C@H]3CCN(C(=O)C4CC4)C3)ncnc21 [Compound 8-7, N-[(3S)-1-(cyclopropylcarbonyl)pyrrolidin-3-yl]-9-ethyl-8-(1-methylethoxy)-9H-purin-6-amine] |
| >10 | < 1 nM | CCn1c(-n2cnc3c2CCCC3)nc2c(N[C@H]3CCN(C(=O)C4CC4)C3)ncnc21 [Compound 8-8, N-[(3S)-1-(cyclopropylcarbonyl)pyrrolidin-3-yl]-9-ethyl-8-(4,5,6,7-tetrahydro-1H-benzimidazol-1-yl)-9H-purin-6-amine] |
| >10 | 20 nM | CCCn1c(-c2cnn(CC)c2C)nc2c(N[C@H]3CCN(C(=O)CC)C3)ncnc21 [Compound 9-1, 8-(1-ethyl-5-methyl-1H-pyrazol-4-yl)-N-[(3S)-1-propanoylpyrrolidin-3-yl]-9-propyl-9H-purin-6-amine] |
| >10 | 36 nM | CCCn1c(-c2cnc(C)nc2)nc2c(N[C@H]3CCN(C(=O)CC)C3)ncnc21 [Compound 9-2, 8-(2-methylpyrimidin-5-yl)-N-[(3S)-1-propanoylpyrrolidin-3-yl]-9-propyl-9H-purin-6-amine] |
| >10 | 67 nM | CCC(=O)N1CC[C@H](Nc2ncnc3c2nc(-c2cnn(CC)c2C)n3CC2CC2)C1 [Compound 9-3, 9-(cyclopropylmethyl)-8-(1-ethyl-5-methyl-1H-pyrazol-4-yl)-N-[(3S)-1-propanoylpyrrolidin-3-yl]-9H-purin-6-amine] |
